Patent publication US8927500B2, “Peptidomimetic macrocycles” (Aileron Therapeutics, Inc., priority 2012, dated 2015)
pIC50, pKi: −log10 of the molar value.

Key:
MDM2 = MDM2 (Homo sapiens, UniProt Q00987); assay: Competitive fluorescence polarization assay for MDM2; type: binding; settings: competitive FP assay, MDM2; for pIC50: read-out: IC50 (MDM2); for pKi: read-out: Ki (MDM2)
MDMX = biological target: T1, MDMX (Homo sapiens, UniProt O15151); assay: Competitive fluorescence polarization assay for MDMX; type: binding; settings: competitive FP assay; for pIC50: read-out: IC50 (MDMX); for pKi: read-out: Ki (MDMX)
T1 sequence (O15151 1-125): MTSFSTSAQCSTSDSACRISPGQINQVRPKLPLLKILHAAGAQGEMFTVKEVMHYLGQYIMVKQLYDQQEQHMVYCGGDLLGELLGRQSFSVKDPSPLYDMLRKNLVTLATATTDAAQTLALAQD
Method: Dilute MDMX (In-house, 40 kD) into FP buffer (High salt buffer-200 mM Nacl, 5 mM CHAPS, pH 7.5.) to make 300 nM (2×) working stock solution. • 2. […] Dilute 1 mM (in 100% DMSO) of FAM labeled linear peptide with DMSO to 100 μM (dilution 1:10). Then, dilute from 100 μM to 10 μM with water (dilution 1:10) and then dilute with FP buffer from 10 μM to 40 nM (dilution 1:250). This is the working solution which will be a 10 nM concentration in well (dilution 1:4). Keep the diluted FAM labeled peptide in the dark until use. • 4. […] Dilute 10 mM (in 100% DMSO) with DMSO to 5 mM (dilution 1:2). Then, dilute from 5 mM to 500 μM with H2O (dilution 1:10) and then dilute with FP buffer from 500 μM to 20 μM (dilution 1:25). […] Transfer 10 μl of serial diluted unlabeled peptides to each well which is filled with 20 μl of 300 nM of protein. • 7. Add 10 μl of 10 nM (4×) of FAM labeled peptide into each well and incubate for 3 hr to read.

Sequence of MDM2 (Q00987 1-125): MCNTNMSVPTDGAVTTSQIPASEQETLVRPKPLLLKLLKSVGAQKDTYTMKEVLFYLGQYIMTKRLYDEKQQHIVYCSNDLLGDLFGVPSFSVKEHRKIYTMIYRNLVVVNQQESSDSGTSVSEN

SMILES	pIC50 (MDM2)	pKi (MDM2)	pIC50 (MDMX)	pKi (MDMX)
CC(=O)N[C@@H](CC(C)C)C(=O)N[C@H](C(=O)N[C@@H](Cc1ccccc1)C(=O)N[C@]1(C)CCCCCCC=CCCC[C@@](C)(C(=O)N[C@@H](C)C(=O)N[C@@H](C)C(=O)N[C@@H](CC(C)C)C(=O)N[C@H](C)C(N)=O)NC(=O)[C@H](CC(C)C)NC(=O)[C@H](CCC(N)=O)NC(=O)[C@H](C)NC(=O)[C@H](Cc2c[nH]c3ccccc23)NC(=O)[C@H](Cc2c[nH]cn2)NC(=O)[C@H](CCC(=O)O)NC1=O)[C@@H](C)O (single isomer, unassigned) [compound 227]	> 8.00	> 8.00	6.00 to 7.00	7.00 to 8.00
CC(=O)N[C@@H](CC(C)C)C(=O)N[C@H](C(=O)N[C@@H](Cc1ccccc1)C(=O)N[C@]1(C)CCCCCCC=CCCC[C@@](C)(C(=O)N[C@@H](CO)C(=O)N[C@@H](C)C(=O)N[C@@H](C)C(N)=O)NC(=O)[C@H](CC2CCC2)NC(=O)[C@H](CCC(N)=O)NC(=O)[C@H](C)NC(=O)[C@H](Cc2c[nH]c3ccccc23)NC(=O)[C@H](Cc2ccc(C(=O)O)cc2)NC(=O)[C@H](CCC(=O)O)NC1=O)[C@@H](C)O (single isomer, unassigned) [compound 291]	7.00 to 8.00	> 8.00	7.00 to 8.00	> 8.00
CCCC[C@H](NC(=O)[C@H](C)NC(=O)[C@H](C)NC(=O)[C@]1(C)CCCC=CCCCCCC[C@@](C)(NC(=O)[C@H](Cc2ccc(F)c(F)c2)NC(=O)[C@@H](NC(=O)[C@H](CC(C)C)NC(C)=O)[C@@H](C)O)C(=O)N[C@@H](C)C(=O)N[C@@H](Cc2ccc(O)cc2)C(=O)N[C@@H](Cc2c[nH]c3ccccc23)C(=O)N[C@@H](C)C(=O)N[C@@H](CCC(N)=O)C(=O)N[C@@H](CCC(C)C)C(=O)N1)C(=O)N[C@@H](C)C(N)=O (single isomer, unassigned) [compound 308]	6.00 to 7.00	7.00 to 8.00	6.00 to 7.00	7.00 to 8.00
CCCC[C@H](NC(=O)[C@H](C)NC(=O)[C@H](C)NC(=O)[C@]1(C)CCCC=CCCCCCC[C@@](C)(NC(=O)[C@H](Cc2ccccc2)NC(=O)[C@@H](NC(=O)[C@H](CC(C)C)NC(C)=O)[C@@H](C)O)C(=O)N[C@@H](C)C(=O)N[C@@H](Cc2ccc(C(=O)O)cc2)C(=O)N[C@@H](Cc2c[nH]c3ccccc23)C(=O)N[C@@H](C)C(=O)N[C@@H](CCC(N)=O)C(=O)N[C@@H](CCC(C)C)C(=O)N1)C(=O)N[C@@H](C)C(N)=O (single isomer, unassigned) [compound 310]	7.00 to 8.00	> 8.00	7.00 to 8.00	7.00 to 8.00
CCCC[C@H](NC(=O)[C@H](C)NC(=O)[C@H](C)NC(=O)[C@]1(C)CCCC=CCCCCCC[C@@](C)(NC(=O)[C@H](Cc2ccccc2)NC(=O)[C@@H](NC(=O)[C@H](CC(C)C)NC(C)=O)[C@@H](C)O)C(=O)N[C@@H](C)C(=O)N[C@@H](Cc2ccc(O)cc2)C(=O)N[C@@H](Cc2c[nH]c3ccccc23)C(=O)N[C@@H](CO)C(=O)N[C@@H](CCC(N)=O)C(=O)N[C@@H](CCC(C)C)C(=O)N1)C(=O)N[C@@H](C)C(N)=O (single isomer, unassigned) [compound 312]	7.00 to 8.00	7.00 to 8.00	6.00 to 7.00	7.00 to 8.00
CCCC[C@H](NC(=O)[C@H](C)NC(=O)[C@H](C)NC(=O)[C@]1(C)CCCC=CCCCCCC[C@@](C)(NC(=O)[C@H](Cc2ccccc2)NC(=O)[C@@H](NC(=O)[C@H](CC(C)C)NC(C)=O)[C@@H](C)O)C(=O)N[C@@H](C)C(=O)N[C@@H](Cc2ccc(O)cc2)C(=O)N(C)[C@@H](Cc2c[nH]c3ccccc23)C(=O)N[C@@H](C)C(=O)N[C@@H](CCC(N)=O)C(=O)N[C@@H](CC(C)C)C(=O)N1)C(=O)N[C@@H](C)C(N)=O (single isomer, unassigned) [compound 386]	6.00 to 7.00	6.00 to 7.00	< 6.00	< 6.00
CCCC[C@H](NC(=O)[C@H](C)NC(=O)[C@H](C)NC(=O)[C@]1(C)CCCC=CCCCCCC[C@@](C)(NC(=O)[C@H](Cc2ccccc2)NC(=O)[C@@H](NC(=O)[C@H](CC(C)C)NC(C)=O)[C@@H](C)O)C(=O)N[C@@H](C)C(=O)N[C@@H](Cc2ccc(O)cc2)C(=O)N[C@@H](Cc2c[nH]c3ccccc23)C(=O)N[C@@H](C)C(=O)N[C@@H](CCC(N)=O)C(=O)N[C@@H](CC(C)C)C(=O)N1)C(=O)NC(C)(C)C(N)=O (single isomer, unassigned) [compound 398]	7.00 to 8.00	> 8.00	7.00 to 8.00	7.00 to 8.00
CCCC[C@H](NC(=O)[C@H](C)NC(=O)[C@H](C)NC(=O)[C@]1(C)CCCC=CCCCCCC[C@@](C)(NC(=O)[C@H](Cc2ccccc2)NC(=O)[C@@H](NC(=O)[C@H](CC(C)C)NC(C)=O)[C@@H](C)O)C(=O)N[C@@H](C)C(=O)N[C@@H](Cc2ccc(O)cc2)C(=O)N[C@@H](Cc2c[nH]c3ccccc23)C(=O)N[C@@H](C)C(=O)N[C@@H](CCC(N)=O)C(=O)N[C@@H](CC(C)C)C(=O)N1)C(=O)N[C@@H](C)C(=O)NC(C)(C)C(N)=O (single isomer, unassigned) [compound 404]	7.00 to 8.00	> 8.00	7.00 to 8.00	> 8.00

More lines, now with the values ahead:

pIC50 (MDM2)	pKi (MDM2)	pIC50 (MDMX)	pKi (MDMX)	SMILES
> 8.00	> 8.00	7.00 to 8.00	7.00 to 8.00	CC(=O)N[C@@H](CC(C)C)C(=O)N[C@H](C(=O)N[C@@H](Cc1ccccc1)C(=O)N[C@]1(C)CCCCCCC=CCCC[C@@](C)(C(=O)N[C@@H](CO)C(=O)N[C@@H](C)C(=O)N[C@@H](C)C(N)=O)NC(=O)[C@H](CC2CCC2)NC(=O)[C@H](CCC(N)=O)NC(=O)[C@H](CO)NC(=O)[C@H](Cc2c[nH]c3ccccc23)NC(=O)[C@H](Cc2ccc(O)cc2)NC(=O)[C@H](CCC(=O)O)NC1=O)[C@@H](C)O (single isomer, unassigned) [compound 293]
7.00 to 8.00	> 8.00	7.00 to 8.00	7.00 to 8.00	CC(=O)N[C@@H](C)C(=O)N[C@@H](CC(C)C)C(=O)N[C@H](C(=O)N[C@@H](Cc1ccccc1)C(=O)N[C@]1(C)CCCCCCC=CCCC[C@@](C)(C(=O)N[C@@H](CO)C(=O)N[C@@H](C)C(=O)N[C@@H](C)C(N)=O)NC(=O)[C@H](CC2CCC2)NC(=O)[C@H](CCC(N)=O)NC(=O)[C@H](C)NC(=O)[C@H](Cc2c[nH]c3ccccc23)NC(=O)[C@H](Cc2ccc(O)cc2)NC(=O)[C@H](CCC(=O)O)NC1=O)[C@@H](C)O (single isomer, unassigned) [compound 328]
> 8.00	> 8.00	7.00 to 8.00	> 8.00	CCCC[C@H](NC(=O)[C@H](C)NC(=O)[C@H](CO)NC(=O)[C@]1(C)CCCC=CCCCCCC[C@@](C)(NC(=O)[C@H](Cc2ccccc2)NC(=O)[C@@H](NC(=O)[C@H](CC(C)C)NC(C)=O)[C@@H](C)O)C(=O)N[C@@H](CCC(=O)O)C(=O)N[C@@H](Cc2ccc(C(=O)O)cc2)C(=O)N[C@@H](Cc2c[nH]c3cc(Cl)ccc23)C(=O)N[C@@H](C)C(=O)N[C@@H](CCC(N)=O)C(=O)N[C@@H](CC2CCC2)C(=O)N1)C(=O)N[C@@H](C)C(N)=O (single isomer, unassigned) [compound 334]
6.00 to 7.00	6.00 to 7.00	< 6.00	< 6.00	CCCC[C@H](NC(=O)[C@H](C)NC(=O)[C@H](C)NC(=O)[C@]1(C)CCCC=CCCCCCC[C@@](C)(NC(=O)[C@H](Cc2ccccc2)NC(=O)[C@@H](NC(=O)[C@H](CC(C)C)NC(C)=O)[C@@H](C)O)C(=O)N[C@@H](C)C(=O)N(C)[C@@H](Cc2ccc(O)cc2)C(=O)N[C@@H](Cc2c[nH]c3ccccc23)C(=O)N[C@@H](C)C(=O)N[C@@H](CCC(N)=O)C(=O)N[C@@H](CC(C)C)C(=O)N1)C(=O)N[C@@H](C)C(N)=O (single isomer, unassigned) [compound 384]
7.00 to 8.00	> 8.00	7.00 to 8.00	7.00 to 8.00	CCCC[C@H](NC(=O)[C@H](C)NC(=O)[C@H](C)NC(=O)[C@]1(C)CCCC=CCCCCCC[C@@](C)(NC(=O)[C@H](Cc2ccccc2)NC(=O)[C@@H](NC(=O)[C@H](CC(C)C)NC(C)=O)[C@@H](C)O)C(=O)N[C@@H](C)C(=O)N[C@@H](Cc2ccc(O)cc2)C(=O)N[C@@H](Cc2c[nH]c3ccccc23)C(=O)NC(C)(C)C(=O)N[C@@H](CCC(N)=O)C(=O)N[C@@H](CC(C)C)C(=O)N1)C(=O)N[C@@H](C)C(N)=O (single isomer, unassigned) [compound 390]
> 8.00	> 8.00	7.00 to 8.00	> 8.00	CCCC[C@H](NC(=O)[C@@H](C)NC(=O)[C@H](C)NC(=O)[C@]1(C)CCCC=CCCCCCC[C@@](C)(NC(=O)[C@H](Cc2ccccc2)NC(=O)[C@@H](NC(=O)[C@H](CC(C)C)NC(C)=O)[C@@H](C)O)C(=O)N[C@@H](C)C(=O)N[C@@H](Cc2ccc(O)cc2)C(=O)N[C@@H](Cc2c[nH]c3ccccc23)C(=O)N[C@@H](C)C(=O)N[C@@H](CCC(N)=O)C(=O)N[C@@H](CC(C)C)C(=O)N1)C(=O)N[C@@H](C)C(N)=O (single isomer, unassigned) [compound 394]
> 8.00	> 8.00	> 8.00	> 8.00	CCCC[C@H](NC(=O)[C@H](C)NC(=O)[C@H](C)NC(=O)[C@]1(C)CCCC=CCCCCCC[C@@](C)(NC(=O)[C@H](Cc2ccccc2)NC(=O)[C@@H](NC(=O)[C@H](CC(C)C)NC(C)=O)[C@@H](C)O)C(=O)N[C@@H](C)C(=O)N[C@@H](Cc2ccc(O)cc2)C(=O)N[C@@H](Cc2c[nH]c3ccccc23)C(=O)N[C@@H](C)C(=O)N[C@@H](CCC(N)=O)C(=O)N[C@@H](CC(C)C)C(=O)N1)C(=O)N(C)CC(N)=O (single isomer, unassigned) [compound 402]
